Experimental data: patent US20210106550A1, “COMPOSITIONS FOR PREVENTING OR TREATING COGNITIVE IMPAIRMENT-RELATED DISEASE COMPRISING MUMEFURAL” (KOREA INSTITUTE OF ORIENTAL MEDICINE, priority 2018, published 2021)

Experiments:
[1] = tested on: ChAT-positive cholinergic cells; assay: immunohistostaining of ChAT-positive cholinergic cells in basal forebrain; format: in vivo, Wistar rats; conditions: BCCAo rats, oral mumefural; compared with the negative control; FIGS. 4A, 4B
Method: (§1) Specifically, 12-week-old Wister rats (350 g to 380 g) were used for the experiments. After obtaining the experimental animals, appearance was visually inspected and then normal symptoms were observed during a 7-day acclimation period. Healthy animals were selected therefrom and assigned to groups by a random method according to body weight ranges, and then experiments were performed. […]
In order to investigate effects of mumefural on normalization of the cholinergic system in the dementia-mimic animal model, mumefural was administered in the same manner as in Example 1, and then the number of cholinergic neurons of the basal forebrain was measured.
Specifically, the brain was excised from each of the dementia-mimic rats after administration of mumefural was completed and sectioned into slices with a thickness of 40 μm. Subsequently, the cholinergic neurons of the basal forebrain were detected using choline acetyltransferase (ChAT) protein, which is known to be expressed in cholinergic neurons. The slices were stained by immunohistostaining using an anti-ChAT antibody as a primary antibody and a donkey anti-goat antibody as a secondary antibody, and anti-ChAT positive cells were detected.

AChE = assay: enzyme-linked immunosorbent assay of AChE activity in hippocampus; format: in vivo; conditions: compared with the negative control; FIG. 8
Method: (§2) Specifically, 12-week-old Wister rats (350 g to 380 g) were used for the experiments. After obtaining the experimental animals, appearance was visually inspected and then normal symptoms were observed during a 7-day acclimation period. Healthy animals were selected therefrom and assigned to groups by a random method according to body weight ranges, and then experiments were performed. During the acclimation and experiment, a constant breeding environment was maintained under the conditions of a temperature of 23±3° C., a relative humidity of 50±10%, a ventilation frequency of 12 times to 16 times per hour, a 12-hour light-dark cycle (light on at 7:00, light off at 19:00), and an intensity of illumination of 150 Lx to 300 Lx. Experiments were performed using sterilized instruments, and the rats were allowed free access to tap water and a solid feed (PMI nutrition, USA) for 24 hours.
(§3) In order to construct a vascular dementia-mimic animal model, chronic cerebral hypoperfusion was induced by bilateral common carotid artery occlusion (2VO, hereinafter referred to as “brain damage (BCCA0)”) (Wakita et al., 1994). The rats were anesthetized with 4% isoflurane, and the anesthesia was maintained by 1.5% isoflurane during the operation. The central neck was incised to expose the bilateral common carotid artery carefully so as not to cause damage to the vagal nerve. […]

[2] = tested on: PSD-95 and synaptophysin-1 proteins; assay: western blot of synaptic markers in hippocampus; format: in vivo, Wistar rats; conditions: compared with the negative control; FIGS. 11A, 11B
Method: as §2, with “Experiments were performed using sterilized instruments, and the rats were allowed free access to tap water and a solid feed (PMI nutrition, USA) for 24 hours.” left out
In order to investigate effects of mumefural on normalization of synaptic markers in the dementia-mimic animal model, mumefural was administered in the same manner as in Example 1, and then expression levels of PSD-95 and synaptophysin-1 proteins in the hippocampus were analyzed.
Specifically, the hippocampus was excised from each of the dementia-mimic rats after administration of mumefural was completed, and the proteins were extracted therefrom. Expression levels of the PSD-95 and synaptophysin-1 proteins were analyzed by western blotting. β-Actin was used as a loading control.

[3] = tested on: myelin basic protein (MBP); assay: immunohistostaining of MBP protein (degraded myelin) in white matter and hippocampus; format: in vivo, Wistar rats; conditions: compared with the negative control, FIGS. 9A, 9B
Method: as §1
In order to investigate the effects on normalization of degraded myelin in the dementia-mimic animal model, mumefural was administered in the same manner as in Example 1 above, and then degradation degrees of oligodendrocytes was analyzed in the hippocampus, fornix, medial septum, corpus callosum, and fimbria hippocampi.
Specifically, the brain was excised from each of the dementia-mimic rats after administration of mumefural was completed and sectioned into slices with a thickness of 40 μm. Subsequently, oligodendrocytes in the hippocampus, white matter fornix, medial septum, corpus callosum, and fimbria hippocampi were detected using myelin basic protein (MBP) that is expressed in the myelin sheath of axons by oligodendrocytes. The slices were stained by immunohistostaining using anti-MBP antibody as a primary antibody and horse anti-mouse antibody as a secondary antibody, and anti-MBP positive cell responses were detected.

[4] = tested on: NMDAR2A and NMDAR2B proteins; assay: western blot of post-synaptic receptors in hippocampus; format: in vivo, Wistar rats; conditions: compared with the negative control; FIGS. 12A, 12B
Method: as §1
In order to investigate effects of mumefural on normalization of damaged hippocampus in the dementia-mimic animal model, mumefural was administered in the same manner as in Example 1, and then amounts of post-synaptic receptors in the hippocampus were analyzed by examining expression levels of N-methyl-D-aspartate receptor 2A (NMDAR2A) and N-methyl-D-aspartate receptor 2B (NMDAR2B) proteins.
Specifically, the hippocampus was excised from each of the dementia-mimic rats after administration of mumefural was completed, and the proteins were extracted therefrom. Expression levels of the NMDAR2A and NMDAR2B proteins were analyzed by western blotting. β-Actin was used as a loading control.

astrocytes = assay: immunohistostaining of GFAP (astrocytes) in hippocampus and white matter; format: in vivo, Wistar rats
Method: as §2
In order to construct a vascular dementia-mimic animal model, chronic cerebral hypoperfusion was induced by bilateral common carotid artery occlusion (2VO, hereinafter referred to as “brain damage (BCCA0)”) (Wakita et al., 1994). The rats were anesthetized with 4% isoflurane, and the anesthesia was maintained by 1.5% isoflurane during the operation. The central neck was incised to expose the bilateral common carotid artery carefully so as not to cause damage to the vagal nerve. Ligation was performed twice with No. 3 silk, thereby constructing an animal model in which dementia was induced by brain damage.
After 21 days from the BCCA0 operation, the Wistar rats were orally administered with mumefural for 42 days. The rats were divided into 5 groups listed in Table 1 below, and controls were orally administered with saline. […]
(§4) In order to investigate effects of mumefural on normalization of damaged hippocampus and corpus callosum of white matter in the dementia-mimic animal model, mumefural was administered in the same manner as in Example 1, and then microglia and astrocytes were detected in the hippocampus and white matter to identify gliosis. […]

microglia = assay: immunohistostaining of lba-1 (microglia) in hippocampus and white matter; format: in vivo, Wistar rats; conditions: compared with the negative control
Method: as §2, with “hours. […]” for “hours.”
as §4

IL-1β and IL-18 = assay: enzyme immunoassay of inflammatory cytokines in hippocampus tissue; format: in vivo, Wistar rats; conditions: compared with the negative control, FIG. 20
Method: as §2, §3

Question: Which “number of cells positive for the anti-ChAT antibody in the basal forebrain” value [1] does the source give for O=Cc1ccc(COC(=O)CC(O)(CC(=O)O)C(=O)O)o1 (centres unmarked) [mumefural] here?
Answer: significantly increased

Question: And the “activity of AChE in the hippocampus” value (AChE)?
Answer: decreased

Question: And the “expression level of PSD-95 protein in hippocampus” value [2]?
Answer: increased

Question: And the “expression level of synaptophysin-1 protein in hippocampus” value [2]?
Answer: increased

Question: And the “myelin degradation (MBP immunohistostaining)” value [3]?
Answer: decreased

Question: What about the “expression level of NMDAR2A protein in hippocampus” value [4] of the same compound?
Answer: significantly increased

Question: What about the “expression level of NMDAR2B protein in hippocampus” value [4] of the same compound?
Answer: significantly increased

Question: What about the “numbers of astrocytes, effect vs normal control” value (astrocytes; 20 mg/kg, 40 mg/kg, and 80 mg/kg oral, hippocampus and white matter) of the same compound?
Answer: effects similar to or superior to those of the normal control

Question: What about the “numbers of astrocytes (GFAP positive cells) in the hippocampus” value (astrocytes; compared with the negative control, FIGS. 16A, 16B) of the same compound?
Answer: significantly decreased

Question: And the “numbers of astrocytes (GFAP positive cells) in the white matter” value (astrocytes; compared with the negative control, FIGS. 16C, 16D)?
Answer: significantly decreased

Question: What about the “numbers of microglia (lba-1 positive cells) in the hippocampus” value (microglia; FIGS. 15A, 15B) of the same compound?
Answer: significantly decreased

Question: What about the “numbers of microglia (lba-1 positive cells) in the white matter” value (microglia; FIGS. 15C, 15D) of the same compound?
Answer: significantly decreased

Question: What about the “level of IL-1β in hippocampus tissue” value (IL-1β and IL-18) of the same compound?
Answer: significantly decreased

Question: What about the “level of IL-18 in hippocampus tissue” value (IL-1β and IL-18) of the same compound?
Answer: significantly decreased
